The values below come from article PMC9519552, “Activation of the human insulin receptor by non-insulin-related peptides” (Nature Communications, 2022).

By Ki is commonly meant the dissociation constant of the complex between target and ligand, obtained from inhibition or displacement. For orientation: EC50 means the midpoint of the concentration-response curve. One may read the IC50 as the concentration that gives 50% inhibition.

Where two headings read alike, the source gives them in different places. Positions of bridges follow the written chain, without caps; N, C: chain ends. Residues, ends and D or L forms follow the SMILES beside them.

One assay deals with T1, human IR-A (holoIR-A) (Homo sapiens, UniProt P06213).
T1 construct: expressed in transfected cells; host or cells: HEK293 (ATCC #CRL-1573), stably transfected; membrane preparation
T1 sequence (P06213 28-1370 isoform P06213-2 limits assumed): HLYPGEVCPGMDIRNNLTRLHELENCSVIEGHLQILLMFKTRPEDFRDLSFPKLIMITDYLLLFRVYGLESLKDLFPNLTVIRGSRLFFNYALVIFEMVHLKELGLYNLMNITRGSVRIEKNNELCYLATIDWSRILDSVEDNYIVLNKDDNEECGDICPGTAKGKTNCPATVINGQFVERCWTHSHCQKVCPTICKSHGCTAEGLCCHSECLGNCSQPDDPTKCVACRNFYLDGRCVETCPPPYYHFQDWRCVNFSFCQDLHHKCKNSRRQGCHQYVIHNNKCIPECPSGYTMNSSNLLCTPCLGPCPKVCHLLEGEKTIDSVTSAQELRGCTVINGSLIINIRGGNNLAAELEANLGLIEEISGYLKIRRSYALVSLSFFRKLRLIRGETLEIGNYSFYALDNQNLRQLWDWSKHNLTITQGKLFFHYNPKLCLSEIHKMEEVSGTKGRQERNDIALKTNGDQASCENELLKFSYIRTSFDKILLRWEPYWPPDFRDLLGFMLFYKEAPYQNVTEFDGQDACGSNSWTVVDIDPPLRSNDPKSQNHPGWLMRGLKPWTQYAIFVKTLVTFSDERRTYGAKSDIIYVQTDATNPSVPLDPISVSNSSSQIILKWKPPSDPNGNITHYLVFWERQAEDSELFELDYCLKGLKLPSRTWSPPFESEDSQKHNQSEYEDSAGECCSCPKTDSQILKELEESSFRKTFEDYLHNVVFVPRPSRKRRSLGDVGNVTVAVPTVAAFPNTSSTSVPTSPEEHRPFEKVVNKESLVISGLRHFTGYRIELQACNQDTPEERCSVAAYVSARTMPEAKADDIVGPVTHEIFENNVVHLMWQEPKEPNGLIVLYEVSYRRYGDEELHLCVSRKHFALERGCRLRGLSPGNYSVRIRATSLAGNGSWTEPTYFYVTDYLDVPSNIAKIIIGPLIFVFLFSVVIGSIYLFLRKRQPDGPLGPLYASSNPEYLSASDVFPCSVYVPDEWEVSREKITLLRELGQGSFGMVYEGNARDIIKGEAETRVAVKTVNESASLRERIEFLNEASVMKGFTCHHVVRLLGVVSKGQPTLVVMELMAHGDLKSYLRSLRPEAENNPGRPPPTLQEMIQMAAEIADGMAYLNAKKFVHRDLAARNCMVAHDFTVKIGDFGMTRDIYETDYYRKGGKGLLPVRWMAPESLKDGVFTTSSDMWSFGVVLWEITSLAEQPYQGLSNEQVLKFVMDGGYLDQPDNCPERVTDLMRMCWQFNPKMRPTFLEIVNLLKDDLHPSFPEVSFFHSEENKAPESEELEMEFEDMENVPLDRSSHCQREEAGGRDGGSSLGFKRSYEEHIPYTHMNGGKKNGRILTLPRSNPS
T1 sequence (P06213 763-1382 partner limits assumed): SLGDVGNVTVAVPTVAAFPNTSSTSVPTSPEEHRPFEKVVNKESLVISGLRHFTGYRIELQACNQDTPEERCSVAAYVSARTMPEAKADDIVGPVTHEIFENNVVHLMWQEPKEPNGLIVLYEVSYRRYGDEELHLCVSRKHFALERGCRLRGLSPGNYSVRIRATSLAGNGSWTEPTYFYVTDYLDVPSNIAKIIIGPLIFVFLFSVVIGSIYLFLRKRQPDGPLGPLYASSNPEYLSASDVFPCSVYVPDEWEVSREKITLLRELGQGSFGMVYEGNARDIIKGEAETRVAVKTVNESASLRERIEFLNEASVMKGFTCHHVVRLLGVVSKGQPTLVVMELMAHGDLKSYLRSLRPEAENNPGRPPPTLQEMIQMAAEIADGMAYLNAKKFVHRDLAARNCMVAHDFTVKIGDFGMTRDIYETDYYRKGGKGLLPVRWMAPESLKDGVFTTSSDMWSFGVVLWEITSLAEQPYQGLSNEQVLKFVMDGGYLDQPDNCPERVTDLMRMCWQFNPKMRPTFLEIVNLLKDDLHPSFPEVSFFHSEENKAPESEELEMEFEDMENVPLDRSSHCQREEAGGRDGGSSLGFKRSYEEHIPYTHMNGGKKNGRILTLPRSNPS
Kind of assay: holoIR-A competitive radioligand binding assay (scintillation proximity assay). Put shortly: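 Membranes from HEK293 cells stably expressing C9-tagged human IR-A were used in a WGA-bead SPA competition assay in 50 mM Tris-HCl pH 7.5, 150 mM NaCl, 0.1% fatty-acid-free BSA. Ten-point 3-fold dilutions were incubated 10 h at room temperature before scintillation counting. Percent specific inhibition was calculated after nonspecific-binding correction, from three independent runs.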

Assay [1] has as its target T2, human holoIR-A over-expressed in HEK293 cells (Homo sapiens, UniProt P06213).
T2 construct: expressed in transfected cells; host or cells: HEK293, stably transfected
Kind of assay: holoIR-A auto-phosphorylation assay (ELISA). The format is cell-based. The method, then:
Phosphorylation was quantified using an ELISA technique. Ninety-six well, flat-bottom microplates (Greiner Bio-One) were pre-coated with 2 µg mL^−1 anti-C9 monoclonal antibody (Rho 1D4; University of British Columbia)[27] in 20 mM sodium carbonate, pH 9.6, at 4 °C for overnight prior to the assay. On the assay day, plates were washed 3× with 0.1% Tween in 50 mM Tris Buffer Saline, pH 7.5 (TBST), and then blocked for greater than 1 h at room temperature (RT) with 1% BSA (Sigma) in TBST.
Stably transfected HEK293 cells over-expressing human holoIR-A containing a C-terminal C9 epitope tag ([…]), were plated at 6 × 10^4 cells per well serum-starved using 0.1% BSA in DMEM (Gibco) for overnight at standard tissue culture condition. […] After a 15-min incubation in lysis buffer at 4 °C, the lysate was transferred to anti-C9 antibody coated capture plate (Rho 1D4; University of British Columbia)[27]. […] After a 1 h incubation at room temperature, the secondary antibody was removed by washing 3× with TBST. Signal detection occurred with the addition of TMB, an HRP substrate (Pierce). After 5–10 min, the reaction was stopped by adding an equal volume of 2 M H2SO4, and the absorbance readings at 450 nm (A450) were recorded using a Envision plate reader (PerkinElmer). Samples were tested in three independent assay runs on three different days.
Percent specific response (y-axis) was plotted versus the log concentration of compound (x-axis) using Prism Version 9.3.1 (GraphPad Software). Individual measurements are provided as Source Data.
Background: ELISA stands for enzyme-linked immunosorbent assay.

For assay [2], the target named is T2, human holoIR-A over-expressed in HEK293 cells. The experiment in a line: Inhibition of hIR phosphorylation by peptides, co-incubated with BHI at its EC50 (ELISA). As to conditions: for hIRA Phosph IC50 Run 1 / hIRA Phosph IC50 Run 2 / hIRA Phosph IC50 Run 3: inhibition of insulin-stimulated phosphorylation; for hIRA Phosph IC50 Run 1: BHI at its EC50, run 1; for hIRA Phosph IC50 Run 2: BHI at its EC50, run 2; for hIRA Phosph IC50 Run 3: BHI at its EC50, run 3; for IC50: read-out: hIRA Phosph IC50 Mean. The format is cell-based. A digest of the protocol:
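Phosphorylation ELISA (TMB, A450) after anti-C9 capture of lysates from stably transfected HEK293 cells expressing C-terminally C9-tagged human holoIR-A, serum-starved overnight in 0.1% BSA/DMEM. Percent specific response versus log concentration, from three independent runs on three days.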

The mark [3] stands for this setting: primary peptide set, mean of 3 runs, read-out: IRA Binding Ki Mean.
[4] abbreviates: primary peptide set, mean of 3 runs, read-out: hIRA Phosph EC50 Mean.
[5] abbreviates: IM172N22(-) mutant peptide set, mean of 3 runs, read-out: hIRA Binding Ki Mean.
The mark [6] stands for this setting: IM172N22(-) mutant peptide set, run 1, read-out: hIRA Binding Ki Run 1.
Where [7] appears, read: IM172N22(-) mutant peptide set, run 2, read-out: hIRA Binding Ki Run 2.
Where [8] appears, read: IM172N22(-) mutant peptide set, run 3, read-out: hIRA Binding Ki Run 3.

T2 sequence (P06213 28-1370 isoform P06213-2 limits assumed): as the sequence (P06213 28-1370 isoform P06213-2 limits assumed) above
T2 sequence (P06213 763-1382 partner limits assumed): as the sequence (P06213 763-1382 partner limits assumed) above

In the case of `COc1ccc(C[C@H](NC(=O)[C@H](CO)NC(=O)[C@H](CCC(=O)O)NC(=O)[C@H](CO)NC(=O)[C@@H]2CCCN2C(C)=O)C(=O)N[C@@H](Cc2ccc(O)cc2)C(=O)N[C@@H](CCCCN)C(=O)N[C@@H](Cc2c[nH]c3ccccc23)C(=O)N[C@@H](Cc2ccccc2)C(=O)N[C@@H](CCC(=O)O)C(=O)N[C@@H](CCCNC(=N)N)C(=O)N[C@@H](CCC(N)=O)C(=O)N[C@@H](CC(C)C)C(N)=O)cc1` [IM172C13] (Ac-PSESY(Me)YKWFERQL-NH2), on human IR-A (holoIR-A) (setting [3]), the Ki was determined as 310 nM. For the same compound, the “weaker affinity for hIR-A than BHI” value on human IR-A (holoIR-A) (relative to biosynthetic human insulin) is listed as approximately 1000 fold. Moreover, the “activity in hIR autophosphorylation assay (in words)” value in assay [1] is “devoid of detectable activity”. Moreover, the EC50 in assay [1] (Fig. 1b, HEK293 hIR-A cells, 1 h 37 °C, ELISA, errors given as SEM, n = 3 independent replicates, read-out: Auto-phosphorylation constant EC50) was more than 10000 nM; in assay [1] (setting [4]), more than 10000 nM. In addition, the “hIRA Phosph EC50 Run 1” value in assay [1] (primary peptide set, run 1) is more than 10000 nM. The “hIRA Phosph EC50 Run 2” value in assay [1] (primary peptide set, run 2) was more than 10000 nM. Besides, in assay [1] (primary peptide set, run 3), the “hIRA Phosph EC50 Run 3” value was more than 10000 nM.

In the case of `CC(C)C[C@H](NC(=O)[C@H](CCC(N)=O)NC(=O)[C@H](CCCNC(=N)N)NC(=O)[C@H](CCC(=O)O)NC(=O)[C@H](Cc1ccccc1)NC(=O)[C@H](Cc1c[nH]c2ccccc12)NC(=O)[C@H](CC(=O)O)NC(=O)[C@H](Cc1ccc(O)cc1)NC(=O)[C@H](Cc1ccccc1)NC(=O)[C@H](CO)NC(=O)[C@H](CCC(=O)O)NC(=O)[C@H](CC(=O)O)NC(=O)[C@H](CC(C)C)NC(=O)[C@H](CO)NC(=O)CNC(=O)[C@H](CO)NC(=O)[C@@H]1CCCN1C(=O)[C@@H]1CSSC[C@H](NC(=O)[C@H](CCC(=O)O)NC(=O)[C@@H](NC(=O)[C@H](CCC(N)=O)NC(=O)[C@H](C)NC(=O)[C@H](Cc2c[nH]c3ccccc23)NC(=O)[C@H](CCC(=O)O)NC(=O)[C@H](CCC(=O)O)NC(=O)[C@H](CCC(=O)O)NC(=O)[C@H](CC(C)C)NC(=O)[C@@H](N)CO)C(C)C)C(=O)N[C@@H](CCC(=O)O)C(=O)N[C@@H](C(C)C)C(=O)N[C@@H](Cc2ccc(O)cc2)C(=O)NCC(=O)N[C@@H](CCCNC(=N)N)C(=O)NCC(=O)N1)C(=O)NCC(=O)O` [Peptide S519, reference compound] (H-SLEEEWAQVECEVYGRGCPSGSLDESFYDWFERQLG-OH; disulfide 11-18), the Ki at human IR-A (holoIR-A) (setting [3]) was 3.18 nM. Moreover, in assay [1] (setting [4]), the EC50 turned out to be 6.04 nM.

For `CC[C@H](C)[C@H](NC(=O)[C@H](CCC(N)=O)NC(=O)[C@H](C)NC(=O)[C@H](Cc1c[nH]c2ccccc12)NC(=O)[C@H](CCC(=O)O)NC(=O)[C@H](CCC(=O)O)NC(=O)[C@H](CCC(=O)O)NC(=O)[C@H](CC(C)C)NC(=O)[C@H](CO)NC(C)=O)C(=O)N[C@@H](CCC(=O)O)C(=O)N[C@H]1CSSC[C@@H](C(=O)N2CCC[C@H]2C(=O)N[C@@H](C)C(=O)N[C@@H](CO)C(=O)N[C@@H](CCC(=O)O)C(=O)N[C@@H](CO)C(N)=O)NC(=O)[C@H](CCCNC(=N)N)NC(=O)CNC(=O)[C@H](Cc2ccc(O)cc2)NC(=O)[C@H](C(C)C)NC(=O)[C@H](CCC(=O)O)NC1=O` [Peptide P19A] (Ac-SLEEEWAQIECEVYGRCPASES-NH2; disulfide 11-17), the Ki at human IR-A (holoIR-A) (setting [5]) came out at 14 nM. Further, the Ki at human IR-A (holoIR-A) (setting [6]) turned out to be 13.0 nM. In addition, the Ki at human IR-A (holoIR-A) (setting [7]) stood at 12.9 nM. For the same compound, at human IR-A (holoIR-A) (setting [8]), the Ki amounted to 16.2 nM. Also, the “reduction in ki for hIR-A on substitution” value on human IR-A (holoIR-A) (relative to control peptide IM172N22 devoid of N-terminal phenylacetylation) is given as “lower than 5 fold”. For the same compound, in assay [2], the “hIRA Phosph IC50 Run 1” value is 172 nM, the “hIRA Phosph IC50 Run 2” value turned out to be 109 nM, the “hIRA Phosph IC50 Run 3” value is 148 nM and the IC50 was 143 nM.

Turning to `CC[C@H](C)[C@H](NC(=O)[C@H](CCC(N)=O)NC(=O)[C@H](C)NC(=O)[C@H](Cc1c[nH]c2ccccc12)NC(=O)[C@H](CCC(=O)O)NC(=O)[C@H](CCC(=O)O)NC(=O)[C@H](CCC(=O)O)NC(=O)[C@H](CC(C)C)NC(=O)[C@H](CO)NC(C)=O)C(=O)N[C@@H](CCC(=O)O)C(=O)N[C@H]1CSSC[C@@H](C(=O)N2CCC[C@H]2C(=O)N2CCC[C@H]2C(=O)N[C@@H](CO)C(=O)N[C@@H](CCCNC(=N)N)C(=O)N[C@@H](CO)C(N)=O)NC(=O)[C@H](CCCNC(=N)N)NC(=O)CNC(=O)[C@H](Cc2ccc(O)cc2)NC(=O)[C@H](C(C)C)NC(=O)[C@H](CCC(=O)O)NC1=O` [Peptide E21R] (Ac-SLEEEWAQIECEVYGRCPPSRS-NH2; disulfide 11-17), the Ki on human IR-A (holoIR-A) (setting [5]) was 8.9 nM. In addition, the Ki at human IR-A (holoIR-A) (setting [6]) is 8.75 nM. The Ki at human IR-A (holoIR-A) (setting [7]) is on record as 8.05 nM. The Ki on human IR-A (holoIR-A) (setting [8]) turned out to be 9.91 nM. Besides, in assay [2], the “hIRA Phosph IC50 Run 1” value is listed as 28 nM, the “hIRA Phosph IC50 Run 2” value is 27 nM, the “hIRA Phosph IC50 Run 3” value was found to be 29 nM and the IC50 turned out to be 28.1 nM.

On to `CC[C@H](C)[C@H](NC(=O)[C@H](CCC(N)=O)NC(=O)[C@H](C)NC(=O)[C@H](Cc1c[nH]c2ccccc12)NC(=O)[C@H](CCCNC(=N)N)NC(=O)[C@H](CCC(=O)O)NC(=O)[C@H](CCC(=O)O)NC(=O)[C@H](CC(C)C)NC(=O)[C@H](CO)NC(C)=O)C(=O)N[C@@H](CCC(=O)O)C(=O)N[C@H]1CSSC[C@@H](C(=O)N2CCC[C@H]2C(=O)N2CCC[C@H]2C(=O)N[C@@H](CO)C(=O)N[C@@H](CCC(=O)O)C(=O)N[C@@H](CO)C(N)=O)NC(=O)[C@H](CCCNC(=N)N)NC(=O)CNC(=O)[C@H](Cc2ccc(O)cc2)NC(=O)[C@H](C(C)C)NC(=O)[C@H](CCC(=O)O)NC1=O` [Peptide E5R] (Ac-SLEERWAQIECEVYGRCPPSES-NH2; disulfide 11-17), for which the Ki is 554 nM at human IR-A (holoIR-A) (setting [5]), 620 nM on human IR-A (holoIR-A) (setting [6]), 541 nM on human IR-A (holoIR-A) (setting [7]) and 500 nM on human IR-A (holoIR-A) (setting [8]). Besides, in assay [2], the “hIRA Phosph IC50 Run 1” value was 1351 nM. The “hIRA Phosph IC50 Run 2” value in assay [2] amounted to 1340 nM. For the same compound, the “hIRA Phosph IC50 Run 3” value in assay [2] is 1323 nM. Moreover, the IC50 in assay [2] was determined as 1340 nM.

For `CC[C@H](C)[C@H](NC(=O)[C@H](CCC(N)=O)NC(=O)[C@H](C)NC(=O)[C@H](Cc1c[nH]c2ccccc12)NC(=O)[C@H](CCC(=O)O)NC(=O)[C@H](CCC(=O)O)NC(=O)[C@H](CCC(=O)O)NC(=O)[C@H](CC(C)C)NC(=O)[C@H](CO)NC(C)=O)C(=O)N[C@@H](CCC(=O)O)C(=O)N[C@H]1CSSC[C@@H](C(=O)N2CCC[C@H]2C(=O)N2CCC[C@H]2C(=O)N[C@@H](CO)C(=O)N[C@@H](CCC(=O)O)C(=O)N[C@@H](CO)C(N)=O)NC(=O)[C@H](CCCNC(=N)N)NC(=O)CNC(=O)[C@H](C)NC(=O)[C@H](C(C)C)NC(=O)[C@H](CCC(=O)O)NC1=O` [Peptide Y14A] (Ac-SLEEEWAQIECEVAGRCPPSES-NH2; disulfide 11-17), the Ki was more than 4240 nM on human IR-A (holoIR-A) (setting [5]), more than 1210 nM at human IR-A (holoIR-A) (setting [6]), more than 4160 nM on human IR-A (holoIR-A) (setting [7]) and more than 4240 nM at human IR-A (holoIR-A) (setting [8]). Also, on human IR-A (holoIR-A) (alanine substitution in IM172N22(-)), the “binding of the mutant peptide to hIR-A (in words)” value is “no detectable binding”. The “hIRA Phosph IC50 Run 1” value in assay [2] is more than 10000 nM. Also, the “hIRA Phosph IC50 Run 2” value in assay [2] is listed as more than 10000 nM. For the same compound, the “hIRA Phosph IC50 Run 3” value in assay [2] is more than 10000 nM. For the same compound, the IC50 in assay [2] is more than 10000 nM.
